# Source: patent US10730882B2, “2-aminoquinazoline derivatives as P70S6 kinase inhibitors” (SENTINEL ONCOLOGY LIMITED, priority 2015, dated 2020)
# Read-outs that look alike come from different tables or passages of the source.
# Experiments:
# [1] = target: p70S6K (h) (Homo sapiens (Human), UniProt P23443); test: p70S6K (h) kinase assay (radiometric, [γ-33P-ATP]); format: biochemical; conditions: read-out: (a) p70S6K1 IC50
# Procedure: (a) Determination of p70S6 Inhibitory Activity
# The ability of compounds of the invention to inhibit P70S6 kinase may be determined using the protocol below.
# 20 mM MOPS, 1 mM EDTA, 0.01% Brij-35, 5% Glycerol, 0.1% b-mercaptoethanol, 1 mg/mL BSA
# In a final reaction volume of 25 μL, p70S6K (h) (5-10 mU) is incubated with 8 mM MOPS pH 7.0, 0.2 mM EDTA, 100 μM KKRNRTLTV, 10 mM Mg acetate and [γ-33P-ATP](specific activity approx. 500 cpm/pmol, concentration as required). The reaction is initiated by the addition of the MgATP mix. After incubation for 40 minutes at room temperature, the reaction is stopped by the addition of 5 μL of a 3% phosphoric acid solution. 10 μL of the reaction mixture is then spotted onto a P30 filtermat and washed three times for 5 minutes in 75 mM phosphoric acid and once in methanol prior to drying and scintillation counting.
# [2] = in vivo cassette mouse model: brain and plasma concentrations following oral dosing; conditions: male CD-1 mice, 2.5 mg/kg per compound; for Kp at 3 h: brain and plasma, read-out: (b) Brain:Plasma ratio at 3 hours
# Procedure: (b) Evaluation of Brain and Plasma Concentrations in an In Vivo Cassette Mouse Model
# The compounds of this invention were evaluated in an in vivo cassette mouse model to determine brain and plasma concentrations following oral dosing. This is an industry-standard and recognised means to assess brain penetration of small molecules (for recent literature article, refer to: in vitro permeability analysis, pharmacokinetic and brain distribution study in mice of imperatorin, isoimperatorin and cnidilin in Radix Angelicae Dahuricae, Fitoterapia, Volume 85, March 2013, Pages 144-153). It is also recognised that higher brain concentrations (and higher ratios of brain:plasma concentration) lead to greater exposure in the brain—this is clearly advantageous if the brain is the site of action.
# For a single cassette study, male CD-1 mice were used (n=3 per timepoint, three timepoints: 1.0 hr, 3.0 hr and 8.0 hr).
# 5 compounds were dosed PO per cassette (dose level 2.5 mg/kg per compound, dose conc. 0.25 mg/ml, dose volume 10.0 ml/kg).
# Formulation used to solubilize compounds: 10% DMSO/90% hydroxypropyl-β-cyclodextrin (20% w/v aqueous)
# Sampling was terminal and plasma and brain matrices were generated. To prepare plasma samples, protein was precipitated using acetonitrile. To prepare brain samples, homogenisation and protein precipitation was performed with acetonitrile. Samples were analysed using HPLC-TOF MS using electrospray ionisation.
# The brain and plasma concentrations and brain-plasma ratios observed for the compounds tested are set out in the table below.
# [3] = brain, read-out: (b) Brain conc. at 3 hours
# [4] = plasma, read-out: (b) Plasma conc. at 3 hours
# Chain of p70S6K (h) (P23443 whole entry): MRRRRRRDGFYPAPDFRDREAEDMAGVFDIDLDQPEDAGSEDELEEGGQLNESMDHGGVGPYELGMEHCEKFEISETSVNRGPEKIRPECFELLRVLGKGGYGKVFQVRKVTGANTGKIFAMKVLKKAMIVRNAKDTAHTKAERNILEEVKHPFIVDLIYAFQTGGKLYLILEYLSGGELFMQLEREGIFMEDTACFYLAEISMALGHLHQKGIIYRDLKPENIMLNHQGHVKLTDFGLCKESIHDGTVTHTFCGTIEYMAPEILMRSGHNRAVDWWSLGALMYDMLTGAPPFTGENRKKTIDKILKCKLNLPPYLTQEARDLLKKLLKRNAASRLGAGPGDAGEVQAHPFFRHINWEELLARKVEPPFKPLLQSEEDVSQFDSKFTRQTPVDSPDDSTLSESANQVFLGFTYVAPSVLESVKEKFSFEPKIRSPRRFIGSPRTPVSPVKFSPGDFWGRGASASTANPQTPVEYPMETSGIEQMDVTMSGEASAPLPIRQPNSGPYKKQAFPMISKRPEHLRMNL
SMILES,IC50 [1],also measured
"C[C@@H](Nc1ncc2cc(-c3ncnc4[nH]ncc34)ccc2n1)c1cccc(Cl)c1 [Example 2, ((R)-1-(3-Chloro-phenyl)-ethyl)-[6-(1H-pyrazolo[3,4-d]pyrimidin-4-yl)-quinazolin-2-yl]-amine]",30 nM,
"C[C@@H](Nc1ncc2cc(-c3ncnc4[nH]ncc34)ccc2n1)c1cccc(F)c1 [Example 3, ((R)-1-(3-Fluoro-phenyl)-ethyl)-[6-(1H-pyrazolo[3,4-d]pyrimidin-4-yl)-quinazolin-2-yl]-amine]",21 nM,"Kp at 3 h [2]: 3.7; concentration at 3 h [2, 3]: 1680 nM; concentration at 3 h [2, 4]: 460 nM"
"C[C@@H](Nc1ncc2cc(-c3ncnc4[nH]ncc34)ccc2n1)c1ccc(F)cc1 [Example 4, ((R)-1-(4-Fluoro-phenyl)-ethyl)-[6-(1H-pyrazolo[3,4-d]pyrimidin-4-yl)-quinazolin-2-yl]-amine]",22 nM,"Kp at 3 h [2]: 2.2; concentration at 3 h [2, 3]: 1510 nM; concentration at 3 h [2, 4]: 680 nM"
"OC[C@@H](Nc1ncc2cc(-c3ncnc4[nH]ncc34)ccc2n1)c1ccccc1 [Example 5, ((S)-2-Hydroxy-1-phenyl-ethyl)-[6-(1H-pyrazolo[3,4-d]pyrimidin-4-yl)-quinazolin-2-yl]-amine]",24 nM,
"CN(Cc1ccc(F)cc1)c1ncc2cc(-c3ncnc4[nH]ncc34)ccc2n1 [Example 6, (4-Fluorobenzyl)-[6-(1H-pyrazolo[3,4-d]pyrimidin-4-yl)-quinazolin-2-yl]-methylamine]",147 nM,
"CN(Cc1ccccc1)c1ncc2cc(-c3ncnc4[nH]ncc34)ccc2n1 [Example 7, Benzyl-[6-(1H-pyrazolo[3,4-d]pyrimidin-4-yl)-quinazolin-2-yl]-methylamine]",33 nM,
"C[C@H](c1ccccc1)N(C)c1ncc2cc(-c3ncnc4[nH]ncc34)ccc2n1 [Example 8, ((R)-1-Phenyl-ethyl)-[6-(1H-pyrazolo[3,4-d]pyrimidin-4-yl)-quinazolin-2-yl]-methylamine]",108 nM,
"Fc1ccc(CNc2ncc3cc(-c4ncnc5[nH]ncc45)ccc3n2)cc1 [Example 9, (4-Fluorobenzyl)-[6-(1H-pyrazolo[3,4-d]pyrimidin-4-yl)-quinazolin-2-yl]-amine]",55 nM,
"Fc1cccc(CNc2ncc3cc(-c4ncnc5[nH]ncc45)ccc3n2)c1 [Example 10, (3-Fluorobenzyl)-[6-(1H-pyrazolo[3,4-d]pyrimidin-4-yl)-quinazolin-2-yl]-amine]",18 nM,"Kp at 3 h [2]: 1.7; concentration at 3 h [2, 3]: 840 nM; concentration at 3 h [2, 4]: 500 nM"
"Clc1cccc(CNc2ncc3cc(-c4ncnc5[nH]ncc45)ccc3n2)c1 [Example 11, (3-Chlorobenzyl)-[6-(1H-pyrazolo[3,4-d]pyrimidin-4-yl)-quinazolin-2-yl]-amine]",145 nM,
"C[C@@H](Nc1ncc2ccc(-c3ncnc4[nH]ncc34)cc2n1)c1ccccc1 [Example 12, ((R)-1-Phenyl-ethyl)-[7-(1H-pyrazolo[3,4-d]pyrimidin-4-yl)-quinazolin-2-yl]-amine]",> 3000 nM,
"C[C@@H](Nc1ncc2cc(-c3ccnc4[nH]ncc34)ccc2n1)c1ccccc1 [Example 13, ((R)-1-Phenyl-ethyl)-[6-(1H-pyrazolo[3,4-b]pyridin-4-yl)-quinazolin-2-yl]-amine]",43 nM,
"C[C@@H](Nc1ncc2cc(-c3ncnc4[nH]ccc34)ccc2n1)c1ccccc1 [Example 14, ((R)-1-Phenyl-ethyl)-[6-(7H-pyrrolo[2,3-d]pyrimidin-4-yl)-quinazolin-2-yl]-amine]",57 nM,
"C[C@@H](Nc1ncc2cc(-c3ccnc4[nH]ccc34)ccc2n1)c1ccccc1 [Example 15, ((R)-1-Phenyl-ethyl)-[6-(1H-pyrrolo[2,3-b]pyridin-4-yl)-quinazolin-2-yl]-amine]",97 nM,
"CN(C)CCN(Cc1ccccc1)c1ncc2cc(-c3ncnc4[nH]ncc34)ccc2n1 [Example 16, N-Benzyl-N′,N′-dimethyl-N-[6-(1H-pyrazolo[3,4-d]pyrimidin-4-yl)-quinazolin-2-yl]-ethane-1,2-diamine]",106 nM,
"c1ccc(CN(C[C@@H]2COCCN2)c2ncc3cc(-c4ncnc5[nH]ncc45)ccc3n2)cc1 [Example 17, Benzyl-(R)-1-morpholin-3-ylmethyl-[6-(1H-pyrazolo[3,4-d]pyrimidin-4-yl)-quinazolin-2-yl]-amine]",110 nM,

SMILES,IC50 [1],also measured
"c1ccc(CN(C[C@H]2COCCN2)c2ncc3cc(-c4ncnc5[nH]ncc45)ccc3n2)cc1 [Example 18, Benzyl-(S)-1-morpholin-3-ylmethyl-[6-(1H-pyrazolo[3,4-d]pyrimidin-4-yl)-quinazolin-2-yl]-amine]",25 nM,
"C[C@@H](Nc1ncc2cc(-c3ncnc4[nH]cnc34)ccc2n1)c1ccccc1 [Example 20, ((R)-1-Phenyl-ethyl)-[6-(9H-purin-6-yl)-quinazolin-2-yl]-amine]",167 nM,
"c1ccc(CNc2ncc3cc(-c4ncnc5[nH]ncc45)ccc3n2)cc1 [Example 21, Benzyl-[6-(1H-pyrazolo[3,4-d]pyrimidin-4-yl)-quinazolin-2-yl]-amine]",71 nM,
"Cc1n[nH]c2ncnc(-c3ccc4nc(N[C@H](C)c5ccccc5)ncc4c3)c12 [Example 22, [6-(3-Methyl-1H-pyrazolo[3,4-d]pyrimidin-4-yl)-quinazolin-2-yl]-((R)-1-phenyl-ethyl)-amine]",131 nM,
"COc1cccc(CNc2ncc3cc(-c4ncnc5[nH]ncc45)ccc3n2)c1 [Example 23, (3-Methoxy-benzyl)-[6-(1H-pyrazolo[3,4-d]pyrimidin-4-yl)-quinazolin-2-yl]-amine]",118 nM,
"Fc1ccccc1CNc1ncc2cc(-c3ncnc4[nH]ncc34)ccc2n1 [Example 24, (2-Fluoro-benzyl)-[6-(1H-pyrazolo[3,4-d]pyrimidin-4-yl)-quinazolin-2-yl]-amine]",204 nM,
"Fc1ccc(CNc2ncc3cc(-c4ncnc5[nH]ncc45)ccc3n2)cc1F [Example 25, (3,4-Difluoro-benzyl)-[6-(1H-pyrazolo[3,4-d]pyrimidin-4-yl)-quinazolin-2-yl]-amine]",49 nM,
"CS(=O)(=O)Nc1cccc(CNc2ncc3cc(-c4ncnc5[nH]ncc45)ccc3n2)c1 [Example 26, N-(3-{[6-(1H-Pyrazolo[3,4-d]pyrimidin-4-yl)-quinazolin-2-ylamino]-methyl}-phenyl)-methanesulfonamide]",67 nM,
"COc1cccc([C@@H](C)Nc2ncc3cc(-c4ncnc5[nH]ncc45)ccc3n2)c1 [Example 27, [(R)-1-(3-Methoxy-phenyl)-ethyl]-[6-(1H-pyrazolo[3,4-d]pyrimidin-4-yl)-quinazolin-2-yl]-amine]",41 nM,
"C[C@H](Nc1ncc2cc(-c3ncnc4[nH]ncc34)ccc2n1)c1ccccc1 [Example 29, ((S)-1-Phenyl-ethyl)-[6-(1H-pyrazolo[3,4-d]pyrimidin-4-yl)-quinazolin-2-yl]-amine]",> 3000 nM,
"C[C@@H](Nc1ncc2cc(-c3ncnc4[nH]ncc34)ccc2n1)c1cccc(NS(C)(=O)=O)c1 [Example 30, N-(3-{(R)-1-[6-(1H-Pyrazolo[3,4-d]pyrimidin-4-yl)-quinazolin-2-ylamino]-ethyl}-phenyl)-methanesulfonamide]",23 nM,
"OCC[C@@H](Nc1ncc2cc(-c3ncnc4[nH]ncc34)ccc2n1)c1ccccc1 [Example 31, (R)-3-Phenyl-3-[6-(1H-pyrazolo[3,4-d]pyrimidin-4-yl)-quinazolin-2-ylamino]-propan-1-ol]",10 nM,
"C[C@@H](Nc1ncc2cc(-c3ncnc4[nH]ncc34)ccc2n1)c1c(F)cccc1F [Example 33, [(R)-1-(2,6-Difluoro-phenyl)-ethyl]-[6-(1H-pyrazolo[3,4-d]pyrimidin-4-yl)-quinazolin-2-yl]-amine]",28 nM,
"C[C@@H](Nc1ncc2cc(-c3ncnc4[nH]cc(C#N)c34)ccc2n1)c1ccccc1 [Example 34, 4-[2-((R)-1-Phenyl-ethylamino)-quinazolin-6-yl]-7H-pyrrolo[2,3-d]pyrimidine-5-carbonitrile]",346 nM,
"C[C@@H](Nc1ncc2cc(-c3ncnc4[nH]ncc34)ccc2n1)c1ccccc1O [Example 35, 2-{(R)-1-[6-(1H-Pyrazolo[3,4-d]pyrimidin-4-yl)-quinazolin-2-ylamino]-ethyl}-phenol]",20 nM,
